Among the data in patent CN101260112A, “含噻吩并[3.2-c]吡啶的乙酰肼衍生物及其制备方法和用途” (Tianjin Institute of Pharmaceutical Research Co Ltd, priority 2008, dated 2008) are inhibition and maximum aggregation values, retold here.

Broadly, the inhibition is the relative decrease from the control value, in per cent.

In this assay the test system is ADP-induced platelet aggregation (ADP诱导的血小板聚集). Kind of assay: Effect of compounds of formula I on ADP-induced platelet aggregation (rats dosed orally, turbidimetric method). In kind it is in vivo. Particulars: male Wistar rat, 10 mg/kg oral gavage, blood taken 2 h after dosing, inducer ADP (final concentration 5 μM), turbidimetry, 37℃; for inhibition at 10 mg/kg: Platelet, vs control, read-out: inhibition rate; for maximum aggregation: control 54.8±5.8.

Consider `O=C(NN=Cc1ccc(-c2ccc(Cl)cc2)o1)C(c1cccc(Cl)c1)N1CCc2sccc2C1` (stereo not drawn) [化合物8, α,α-[(3-氯苯基)-(4,5,6,7-四氢噻吩并[3,2-c]吡啶-5-基)]-N′-[[5-(4-氯苯)呋喃-2-基]甲叉基]乙酰肼], for which the inhibition at 10 mg/kg was determined as 64.4% and the maximum aggregation stood at 38.7±10.9.

With `NNC(=O)C(c1ccc(F)cc1)N1CCc2sccc2C1` (stereo not drawn) [化合物1, α,α-[(4-氟苯基)-(4,5,6,7-四氢噻吩并[3,2-c]吡啶-5-基)]乙酰肼], the inhibition at 10 mg/kg turned out to be 48.2% and the maximum aggregation is 28.4±8.1.

Turning to `Cc1ccc(C=NNC(=O)C(c2ccc(Cl)cc2)N2CCc3sccc3C2)cc1` (stereo not drawn) [化合物4, α,α-[(4-氯苯基)-(4,5,6,7-四氢噻吩并[3,2-c]吡啶-5-基)]-N′-[(4-甲基苯基)甲叉基]乙酰肼], the inhibition at 10 mg/kg came to 34.3% and the maximum aggregation was found to be 36.0±6.9.

As for `O=C(NN=C1CCCCC1)C(c1cccc(Cl)c1)N1CCc2sccc2C1` (stereo not drawn) [化合物11, α,α-[(3-氯苯基)-(4,5,6,7-四氢噻吩并[3,2-c]吡啶-5-基)]-N′-(环己叉基)乙酰肼], the inhibition at 10 mg/kg turned out to be 43.1% and the maximum aggregation amounted to 31.2±12.1. As for `O=C(NN=Cc1ccco1)C(c1cccc(F)c1)N1CCc2sccc2C1` (stereo not drawn) [化合物9, α,α-[(3-氟苯基)-(4,5,6,7-四氢噻吩并[3,2-c]吡啶-5-基)]-N′-[(呋喃-2-基)甲叉基]乙酰肼], the inhibition at 10 mg/kg turned out to be 28.6% and the maximum aggregation is listed as 41.0±13.4.

`COC(=O)[C@H](c1ccccc1Cl)N1CCc2sccc2C1` [硫酸氯吡格雷, reference compound] displayed a maximum aggregation of 9.1±3.5.

As for `O=C(NN=Cc1cccc([N+](=O)[O-])c1)C(c1ccc(Cl)c(Cl)c1)N1CCc2sccc2C1` (stereo not drawn) [化合物7, α,α-[(3,4-二氯苯基)-(4,5,6,7-四氢噻吩并[3,2-c]吡啶-5-基)]-N′-[(3-硝基苯基)甲叉基]乙酰肼], the inhibition at 10 mg/kg stood at 23.3% and the maximum aggregation is 36.0±9.3.

With `CCCCc1nc(Cl)c(C=NNC(=O)C(c2cccc(Cl)c2)N2CCc3sccc3C2)[nH]1` (stereo not drawn) [化合物10, α,α-[(3-氯苯基)-(4,5,6,7-四氢噻吩并[3,2-c]吡啶-5-基)]-N′-[[(2-正丁基-4-氯-咪唑-5-基)甲叉基]乙酰肼], the inhibition at 10 mg/kg worked out at 39% and the maximum aggregation is 42.9±12.6.

For `O=C(NN=Cc1ccccc1O)C(c1cccc(F)c1)N1CCc2sccc2C1` (stereo not drawn) [化合物5, α,α-[(3-氟苯基)-(4,5,6,7-四氢噻吩并[3,2-c]吡啶-5-基)]-N′-[(2-羟基苯基)甲叉基]乙酰肼], the inhibition at 10 mg/kg was 33.5% and the maximum aggregation amounted to 38.7±10.6.

`COc1ccc(C=NNC(=O)C(c2cccc(F)c2)N2CCc3sccc3C2)cc1` (stereo not drawn) [化合物6, α,α-[(3-氟苯基)-(4,5,6,7-四氢噻吩并[3,2-c]吡啶-5-基)]-N′-[(4-甲氧基苯基)甲叉基]乙酰肼]: the inhibition at 10 mg/kg came out at 32.5% and the maximum aggregation is on record as 33.9±12.3.

For `CC(C)=NNC(=O)C(c1ccc(Cl)cc1)N1CCc2sccc2C1` (stereo not drawn) [化合物2, α,α-[(4-氯苯基)-(4,5,6,7-四氢噻吩并[3,2-c]吡啶-5-基)]-N′-(二甲基甲叉基)乙酰肼], the inhibition at 10 mg/kg is 58.8% and the maximum aggregation is given as 22.6±3.9. For `O=C(NN=C1CCCc2ccccc21)C(c1ccc(Cl)cc1)N1CCc2sccc2C1` (stereo not drawn) [化合物12, α,α-[(4-氯苯基)-(4,5,6,7-四氢噻吩并[3,2-c]吡啶-5-基)]-N′-(α-四氢萘叉基)乙酰肼] the same measures were 35.3% and 36.2±7.4. The corresponding values for `O=C(NN=Cc1ccccc1Cl)C(c1cccc(Cl)c1)N1CCc2sccc2C1` (stereo not drawn) [化合物3, α,α-[(3-氯苯基)-(4,5,6,7-四氢噻吩并[3,2-c]吡啶-5-基)]-N′-[(2-氯苯基)甲叉基]乙酰肼] are 18.2% and 44.8±11.1.
